Data reported in paper PMC6895199, “A new antiviral scaffold for human norovirus identified with computer-aided approaches on the viral polymerase” (Scientific Reports, 2019).

How the values were obtained:
HuNoV (GII.4) RdRp [1] = target: HuNoV (GII.4) RdRp (Norovirus Hu/GII.4/Sydney/NSW0514/2012/AU, UniProt K4L8Z7); experiment: Quantitative fluorescent RdRp activity assay (PicoGreen, poly(C) template); format: biochemical, human norovirus Sydney 2012
Method: The newly synthesised compounds, including the carboxylate ester derivatives 34–35 and 7 from the Core Hopping approach, were evaluated for their enzymatic inhibition of human norovirus Sydney 2012 (HuNoV (GII.4)) RdRp activity in vitro, using a quantitative fluorescent assay. Compounds were tested at six different concentrations (concentration range examined: 0.1–100 µM) and compared to the relative activity of mock treated samples containing the vehicle only (0.5% DMSO [vol/vol]). PPNDS [Pyridoxal-5′-phosphate-6-(2′-naphthylazo-6′-nitro-4′,8′-disulfonate) tetrasodium salt], a previously reported potent inhibitor of NoV RdRp activity, and 1 were used as positive controls. Dose-dependent inhibitory response curves were used to establish IC50 values for the eight test compounds, as reported in Table 1 (see also Supplementary Fig. S1).
The newly prepared compounds 48–60 were initially evaluated against norovirus Sydney 2012 RdRp activity in vitro using a quantitative fluorescent assay. Compounds were tested at a fixed concentration of 20 µM and compared to the relative activity of mock treated samples. PPNDS and 1 were used as positive controls. […] These two rings are structural features present in 1 and in one of its derivatives we have previously reported. […] From these observations, the thiophene ring appears not to influence inhibitory activity. Derivatives in which the central core of 48 has been used to link the two terminal hydrophobic rings of 1 or of its derivatives we have previously reported[25] (55, 57, 58) appear to retain the RdRp inhibitory activity found for 48 (~20% at 20 µM). A similar effect is obtained when a sulfonyl group, as in our hit 1, is used to link ring 2, regardless if it is a thiazole (59) or an unsubstituted phenyl ring (60), to the rest of the molecule. […] Overall, even if showing a reduced biochemical activity in comparison with 1, some of the new derivatives can be considered as modest HuNoV RdRp inhibitors at 20 µM.
(§1) Fluorescent RdRp activity assays were carried out as previously described[12],[29]. Briefly, RdRp activity was quantified by monitoring the formation of double-stranded RNA (dsRNA) from a single stranded homopolymeric template, poly(C) (Sigma Aldrich), using the fluorescent dye PicoGreen (Life Technologies, Carlsbad, CA, USA). RdRp assays were performed in 384-well plates, and each reaction mixture contained 400 ng enzyme, 45 μM GTP, 10 ng/μL poly(C) RNA, 2.5 mM MnCl2, 5 mM dithiothreitol, (DTT), 0.01% bovine serum albumin (BSA), and 0.005% Tween 20 in 20 mM Tris-HCl, pH 7.5, with a final reaction volume of 25 μL. The PPNDS and compound 1 were used as a positive controls. RdRps were incubated for 10 mins at 30 °C in the presence of the test compounds or the compound vehicle DMSO (0.5% vol/vol) before addition into the reaction mixture, which was then allowed to run 15 min at 30 °C then terminated with 10 mM EDTA, followed by PicoGreen staining and dsRNA quantitation. GraphPad Prism V6.05 (La Jolla, CA, USA) was used to plot the IC50 values. A secondary gel-based polymerase activity assay was used as a counter-screen as described below, to exclude the possibility of RdRp activity enhancement. Primed elongation activity was examined in a gel-based assay as previously described[12],[29] using the RNA template (PE44-NoV). Gels were imaged using BioRad (Hercules, CA, U.SA) Geldoc Universal Hood II, running BioRad Image Lab software, V4.1, build 16.

HuNoV (GII.4) RdRp [2] = experiment: Counter-screen gel-shift assay of primed elongation activity (PE44-NoV template); format: biochemical, human norovirus; conditions: fixed concentration of 100 μM
Method: To further confirm RdRp inhibition and exclude any potential false positives from the first fluorescence RdRp assay, the eight molecules were then assessed using a gel-shift enzyme activity assay at a fixed concentration of 100 μM, following a procedure previously adopted by our research group.
Figure 5 A counter-screen gel-shift assay was used to confirm HuNoV (GII.4) RdRp inhibitory activity of compounds 2, 3, 34 and 35 (A), 4, 5, 6 (B) and 7 (C). The eight compounds were examined for inhibition of primed elongation activity. PE44-NoV RNA templates (32 nucleotides) were extended (44 nucleotides) by the RdRp in the absence of any test compounds (0.5% DMSO [vol/vol] negative control) or with test compounds at a fixed concentration of 100 μM. […] Full-length gels are presented in Supplementary Fig. S3.
as §1

MNV = MNV CPE reduction assay (MTS) in RAW 264.7 cells; format: cell-based, mouse norovirus (MNV-1.CW1); conditions: Norovirus, RAW264.7, in Mus musculus
Method: The newly prepared compounds 2–7 and 34–35 were evaluated for their antiviral effect against the genogroup V mouse norovirus (MNV) using the mouse macrophage cell line RAW264.7. This assay evaluates the ability of the compounds to protect infected cells from the virus-induced cytopathic effect, thus being suitable to identify inhibition of virus replication at every step of the virus life cycle, and representing a robust cellular assay available for the rapid evaluation of potential norovirus inhibitors. Compounds identified using MNV have shown effects against HuNoV in vitro and in vivo, as in the case of nucleoside RdRp inhibitor 2′-C-methylcytidine (2CMC)[34]–[36]. Unfortunately, despite not presenting the aqueous solubility issues we had previously encountered for 1[29], no significant antiviral effect could be observed in this assay for the new compounds up to the maximum concentration tested. The new structural modifications, despite retaining inhibition of the RdRp in an isolated enzyme activity assay and showing no cytotoxic effects at the test concentrations in the MNV antiviral assay (Supplementary Table S1), are correlated with a lack of antiviral activity. As these new structures present the same limitation of most non-nucleoside HuNoV polymerase inhibitors reported so far[22], we were prompted to apply a different computer-aided strategy to further modify the scaffold of 1, with the aim to achieve an antiviral effect in cellular systems. […]
Since the main scope of this work was to find new norovirus inhibitors which show antiviral effects against both the HuNoV RdRp and in norovirus-infected cells, priority was given to the evaluation of most of the new molecules for their antiviral activity against MNV in infected RAW cells. The nucleoside 2′-C-methylcytidine was used as positive control. The test compounds were evaluated at eight different concentrations (range 0.6–100 µM) and their ability to reduce the virus-induced cytopathic effect was assessed.
Cells and virus: MNV (virus strain MNV-1.CW1) was propagated in RAW 264.7 cells grown in DMEM (Life Technologies, Gent, Belgium) supplemented with 10% or 2% FBS, 2 mM L-glutamine, 20 mM HEPES, 0.075 g/L sodium bicarbonate, 1 mM sodium pyruvate, 100 U penicillin/mL and 100 µg/mL streptomycin at 37 °C in a humidified atmosphere of 5% CO2. The human norovirus GI.1 replicon harboring gastric tumor-1 cell line (HGT-NV) (kindly provided by Dr. Ian Goodfellow, University of Cambridge) was maintained in DMEM supplemented with 10% FBS, 2mM L-glutamine, 0.075 g/L sodium bicarbonate and 1.0 mg/ml of Geneticin (G418; Life Technologies), at 37 °C in a humidified atmosphere of 5% CO2[34].
Antiviral assay with MNV: The antiviral activity of the Compounds was determined using an MTS [3-(4,5-dimethylthiazol-2-yl)-5-(3-carboxymethoxyphenyl)-2-(4-sulfophenyl)-2H-tetrazolium]-based cytopathic effect (CPE) reduction assay. […] Then, a MTS-phenazinemethosulfate (MTS/PMS) stock solution [(2 mg/mL MTS (Promega, Leiden, The Netherlands) and 46 µg/mL PMS (Sigma–Aldrich, Bornem, Belgium) in PBS at pH 6–6.5)] was diluted 1/20 in MEM (Life Technologies, Gent, Belgium) and 75 µL were added to each well. After 2 h, the optical density (OD) was read at 498 nm. The %CPE reduction was calculated as [(ODtreated)MNV − ODVC]/[ODCC − ODVC] × 100, where ODCC represents the OD of the uninfected untreated cells, whereas ODVC and (ODtreated)MNV represent the OD of infected untreated cells and virus-infected cells treated with a compound concentration, respectively. The 50% effective concentration (EC50) was defined as the compound concentration that protected 50% of the cells from virus-induced CPE[34].

[3] = Cytotoxicity by the MTS method on uninfected cells; format: cell-based; conditions: mouse, uninfected RAW 264.7 cells
Method: Cytotoxicity: The cytotoxicity of the Compounds was evaluated by the MTS method, by exposing uninfected cells to the same concentrations of compounds for 3 days. The %cell viability was calculated as (ODtreated/ODCC) × 100, where ODCC is the OD of uninfected untreated cells and ODtreated are uninfected cells treated with compound. The CC50 was defined as the compound concentration that reduces the number of viable cells by 50%[34].

[4] = Crystal formation seen in the cell-based assays; format: physicochemical; conditions: MNV CPE reduction assay, Supplementary Table S1
[5] = Supplementary Table S1, at least two independent experiments

Structure (SMILES) | inhibition at 20 µM (HuNoV (GII.4) RdRp [1]; 20 µM, read-out: inhibition of HuNoV RdRp activity at fixed concentration) [%] | inhibition of primed elongation activity (gel-shift) (HuNoV (GII.4) RdRp [2]) | EC50 (MNV; Table 2, RAW 264.7, range 0.6–100 µM, at least three independent experiments) [µM] | CC50 at 3 days ([3]; Table 2, at least three independent experiments) [µM] | IC50 (HuNoV (GII.4) RdRp [1]; HuNoV (GII.4) RdRp activity, six concentrations 0.1–100 µM, mean ± SD) [µM] | EC50 (MNV; [5]) [µM] | CC50 at 3 days [3, 5] [µM] | crystals noted in the assay [4] | inhibition at 100 µM (HuNoV (GII.4) RdRp [1]; 100 µM, read-out: inhibition of RdRp activity at the maximum concentration tested) [%]
O=C(NC(=S)Nc1ccc(N2CCN(C(=O)c3ccco3)CC2)cc1)c1sc2ccccc2c1Cl [Compound 53, 3-Chloro-N-((4-(4-(furan-2-carbonyl)piperazin-1-yl)phenyl)carbamothioyl)benzo[b]thiophene-2-carboxamide] | ≤ 60 | significant inhibition | > 100 | 9.4 ± 2.3 | – | – | – | – | –
CCOC(=O)c1ccc(N2NC(=O)/C(=C\c3ccc(-c4ccc(S(=O)(=O)Nc5ccccc5)cc4)o3)C2=O)cc1 [Compound 34, Ethyl(E)-4-(3,5-dioxo-4-((5-(4-(N-phenylsulfamoyl)phenyl)furan-2-yl)methylene)pyrazolidin-1-yl)benzoate] | – | – | – | – | 13.5 ± 5.8 | > 100 | > 100 | crystals | –
O=C(Cc1cccc(-c2ccccc2)c1)Nc1ccc(S(=O)(=O)Nc2ccccc2)cc1 [Compound 7, 2-([1,1′-biphenyl]-3-yl)-N-(4-(N-phenylsulfamoyl)phenyl)acetamide] | – | did not demonstrate inhibition | – | – | – | > 12.5 | 20 ± 21 | – | 20
